Experimental data from US4104267A, “Somatostatin analogs” (American Home Products Corporation, priority 1977, dated 1978).
Structures can show the parent of a compound that is named as a salt. Residues, ends and D or L forms follow the SMILES beside them.

Key:
Type in all cases: in vivo
insulin = assay: Suppression of Growth Hormone, Glucagon and Insulin (arginine-stimulated, nembutal-anesthetized rats): insulin; settings: albino male rats, arginine stimulation, blood 15 min after compound
Method: (§1) Albino male rats are arranged in the three groups (nine rats/group) and injected i.p. with nembutal at 50 mg/kg. Fifteen minutes after the nembutal injection they are injected s.c. according to group with (a) test compound, typically 10-2000 μg/kg.; )b) SRIF 200 μg/kg.; or (c) physiological saline. Ten minutes. later 0.5 ml. of arginine (300 mg/ml. pH 7.2) is injected into the heart. The rats are decapitated five minutes after receiving the arginine, and the blood is collected into Trasylol-EDTA. Appropriate aliquots are then assayed for growth hormone, glucagon and insulin. […] Comparisons between control and experimental values are statistically evaluated by the analysis of variants method and statistical significance (p) at 0.05 or lower is used as the index of activity.

growth hormone (GH) = assay: Suppression of Growth Hormone (duration of activity, 2 and 4 hours after sc injection); settings: 1 mg/kg sc, nonfasted male rats, paired saline control; for plasma growth hormone (GH) concentration, 2 Hr.: 2 hours after injection; for plasma growth hormone (GH) concentration, 4 Hr.: 4 hours after injection
Method: A subcutaneous (sc) injection of peptide solubilized or suspended in physiological saline, is given to Charles River (CD® nonfasted male rats. Matched saline control solution sc injected rats serve as control animals so that every experimental rat is paired with a control rat. The rats are kept in separate cages and 20 minutes before the end of the test time period they are given an intraperitoneal (i.p.) injection of Nembutal® at a dose of 50 mg/kg. Blood samples are obtained by cardiac puncture and the plasma separated for the radioimmunoassay of growth hormone (GH) concentration (ng/ml.). Time periods after injection of 2 and 4 hours are used to test the duration of the activity of the peptide to suppress circulating peripheral GH levels. Comparisons between control and experimental GH values at each time are evaluated by the Student "t" test and statistical significance (p) at the 0.05 level or lower is used as the index of activity.

growth hormone = assay: Suppression of Growth Hormone, Glucagon and Insulin (arginine-stimulated, nembutal-anesthetized rats): growth hormone; settings: for GH: albino male rats, arginine stimulation, blood 15 min after compound
Method: as §1

glucagon = assay: Suppression of Growth Hormone, Glucagon and Insulin (arginine-stimulated, nembutal-anesthetized rats): glucagon; settings: albino male rats, arginine stimulation, blood 15 min after compound
Method: as §1

| Compound | Insulin (insulin; 100 μg/kg s.c.) [μU/ml.] | plasma growth hormone (GH) concentration, 2 Hr. (growth hormone (GH)) [ng/mL] | plasma growth hormone (GH) concentration, 4 Hr. (growth hormone (GH)) [ng/mL] | GH (growth hormone; 100 μg/kg s.c.) [ng/mL] | Glucagon (glucagon; 100 μg/kg s.c.) [pg/mL] | Insulin (insulin; 10 μg/kg s.c.) [μU/ml.] | GH (growth hormone; 10 μg/kg s.c.) [ng/mL] | hormone specificity of suppression (growth hormone; at low doses, growth hormone, glucagon and insulin) | Glucagon (glucagon; 10 μg/kg s.c.) [pg/mL] |
| --- | --- | --- | --- | --- | --- | --- | --- | --- | --- |
| C[C@@H](O)[C@@H]1NC(=O)[C@H](Cc2ccccc2)NC(=O)[C@H]([C@@H](C)O)NC(=O)[C@H](CCCCN)NC(=O)[C@@H](Cc2c[nH]c3ccccc23)NC(=O)[C@H](Cc2ccccc2)NC(=O)[C@H](Cc2ccccc2)NC(=O)[C@H](Cc2c[nH]cn2)NC(=O)[C@H](Cc2c[nH]cn2)NC(=O)[C@@H](N)CSSC[C@@H](C(=O)O)NC(=O)[C@H](CO)NC1=O [Compound I, L-Cysteinyl-L-Histidyl-L-Histidyl-L-Phenylalanyl-L-Phenylalanyl-D-Trptophyl-L-Lysyl-L-Threonyl-L-Phenylalanyl-L-Threonyl-L-Seryl-L-Cysteine Cyclic (1-12) Disulfide] (HELM PEPTIDE1{C.H.H.F.F.[dW].K.T.F.T.S.C}$PEPTIDE1,PEPTIDE1,1:R3-12:R3$$$V2.0) | 202 ± 49 | 32 ± 6 | 62 ± 13 | 20 ± 8 | 20 ± 8 | – | – | – | – |
| C[C@@H](O)[C@@H]1NC(=O)[C@H](CCCCN)NC(=O)[C@@H](Cc2c[nH]c3ccccc23)NC(=O)[C@H](Cc2ccccc2)NC(=O)[C@H](Cc2ccccc2)NC(=O)[C@H](Cc2c[nH]cn2)NC(=O)[C@H](Cc2c[nH]cn2)NC(=O)[C@@H](N)CSSC[C@H](C(=O)O)NC(=O)[C@H](CO)NC(=O)[C@H]([C@@H](C)O)NC(=O)[C@H](Cc2ccccc2)NC1=O [Compound II, L-Cysteinyl-L-Histidyl-L-Histidyl-L-Phenylalanyl-L-Phenylalanyl-D-Tryptophyl-L-Lysyl-L-Threonyl-L-Phenylalanyl-L-Threonyl-L-Seryl-D-Cysteine Cyclic (1-12) Disulfide, Diacetate Salt] (HELM PEPTIDE1{C.H.H.F.F.[dW].K.T.F.T.S.[dC]}$PEPTIDE1,PEPTIDE1,1:R3-12:R3$$$V2.0) | 165 ± 21 | 20 ± 3 | 107 ± 34 | 64 ± 20 | 5 ± 2 | 318 ± 54 | 110 ± 22 | specific for the suppression of glucagon and growth hormone without affecting insulin secretion | 70 ± 7 |
